The test system of data set [1] is induced TauEGFP-positive cells. Briefly: Whole-cell patch clamp recordings on induced TauEGFP-positive neurons. It is filed as cell-based, mouse. The following applies: for spontaneous excitatory postsynaptic currents (EPSCs): 20 μM CNQX plus 50 μM AP5, after co-culturing with primary astrocytes. As to the method: Whole-cell patch clamp recordings were performed as previously described (Li et al., Cell Stem Cell, 17:195-203 (2015)). The artificial cerebrospinal fluid extracellular solution contained (in mM) 141 NaCl, 2.5 KCl, 1.3 MgCl2, 2.4 CaCl2, 1.25 NaH2PO4, 10 glucose and 10 HEPES, the pH was adjusted to 7.4 with NaOH. Patch pipettes were pulled (˜5 MΩ tip resistance) with a P97 micropipette puller (Sutter Instruments) filled with internal pipette solution contained (in mM) 140 potassium gluconate, 1 CaCl2, 10 EGTA, 2 MgCl2, 5 Na2ATP, and 10 HEPES, the pH was adjusted to 7.4 with KOH. Patch-clamp recordings were taken using an EPC-10 amplifier (HEKA) with PatchMaster. Cell membrane potentials were held typically at −80 mV and depolarized to test potentials from −80 to +80 mV in 10 mV increments to record the sodium and potassium currents. The sample was 20 μs and sweep intervals were 2 s. For current-clamp recordings, a hyperpolarized current was injected into chemical neurons to membrane potentials around −70 mV. Action potentials were elicited by step-depolarized currents with sweep intervals of 3 s. The cells were held at 0 pA to record the resting membrane potentials. In current-clamp mode, the sample frequency was 25 kHz. Induced neurons identified by GFP were co-cultured with mouse primary astrocytes to record spontaneous excitatory postsynaptic currents (sEPSCs) or spontaneous inhibitory postsynaptic currents (sIPSCs). The induced neurons were held at a holding potential of −70 mV (close to the reversal potential of chloride) and 0 mV, respectively. The data were continuously digitized at 20 kHz. For neurotransmitter response, Glutamate (100 μM, Sigma-Aldrich) was dissolved in ACSF, loaded into a pipette, and puffed onto hciN cells using a picosprizer III (Parker Instrument) with 10 psi and […]. All recordings were conducted at room temperature.

For the next data set, the system named is fibroblasts. Put plainly: Stage 1 chemical induction of XEN-like primary colonies from fibroblasts. It is filed as cell-based, mouse. The settings on record: replacing CHIR99021 with TD114-2 in the seven-compound cocktail; XEN-like state not altered. As to the method:
Stage 1 culture medium preparation: KnockOut DMEM (Invitrogen) supplemented with 10% KSR (Invitrogen), 10% FBS (Pan-Biotech), 1% GlutaMAX™-I (Invitrogen), 1% NEAA (Invitrogen), 0.055 mM β-ME (Sigma), 1% penicillin-streptomycin (Invitrogen), 100 ng/ml bFGF (Origene) containing the small-molecule cocktail: 0.5 mM VPA, 2-4 μM TD114-2 or 20 μM CHIR, 10 μM 616452, 10 μM Tranylcypromine, 10-50 μM Forskolin, 0.05 μM AM580 and 5 μM EPZ004777 (VT6TFAE or VC6TFAE). For mouse adult lung fibroblasts (MAFs) induction, 1 μM CH55 and 50 μg/ml Vitamin C (VC) were added enhance the induction efficiency.
TauEGFP fibroblasts were prepared as previously reported (Li et al., Cell Stem Cell, 17:195-203 (2015)). Fibroblasts were seeded at a density of 30,000-50,000 cells per well of a 6-well plate or 300,000 cells per 100 mm dish (day −1) (Fibroblast medium−DMEM basal medium+10% FBS++beta-Me(0.055 mM)+1% PS). The culture plates or dishes were precoated with 0.1% gelatin.
The medium was changed to Stage 1 culture medium (Day 0). For stage 1 chemical reprogramming, cells were induced by the culture medium containing 0.5 mM VPA, 2-4 μM TD114-2 or 20 μM CHIR, 10 μM 616452, 10 μM Tranylcypromine, 10-50 μM Forskolin, 0.05 μM AM580 and 5 μM EPZ004777(VT6TFAE or VC6TFAE)) for 12 days. Culture medium was refreshed every 4 days during the inducing period. XEN-like colonies were formed at about day 6-8.

Another data set deals with XEN-like colonies. Put plainly: Long-term passaging and expansion of XEN-like cells. It is filed as cell-based, mouse. The settings on record: TD114-2 based culture condition; ratio 1:20-30 every 3-4 days. From the text: Day 12 induced)(EN-like colonies (P0) were trypsinized from whole well and re-plated onto gelatin-coated culture plates at a ratio of 1:10-20 in stage 1 medium for the first passage. After the)(EN-like cells at Passage 1 become confluence, passage the cells at a ratio of 1:20-30 every 3-4 days in stage 1 medium. The XEN-like cells can be long term expanded at stage 1 medium for more than 20 passages with lineage specifying potentials.
For a single primary XEN-like colony passaging, feeder layers of mitomycin C-treated MEFs are needed. Pick up the a single primary XEN-like colony with 1 ml syringe, trypsinize for 5 min, and neutralize with stage 1 culture medium, then pipette up and down to obtain a single-cell suspension. Seed the cell suspension on feeder layers with stage 1 culture medium for further expansion. The subsequent passaging of XEN-like cells can be feeder-free.

The subject of data set [2] is XEN-like cells. Briefly: Stage 2 neural induction of TauEGFP-positive cells from XEN-like cells (FACS). It is filed as cell-based, mouse. The following applies: 0.1 μM LDN193189 and 5 μM SB431542 added to FCD; not essential to induce neurons. As for the experimental part:
On day 12, cells were switched into stage 2 neural specification medium. After 8-12 days induction by the stage 2 culture medium, TauEGFP-positive colonies were generated. The TauEGFP-positive colonies were further re-plated to co-culture with primary astrocytes or primary neurons for maturation.
The induced efficiency of the TauEGFP-positive cells was estimated using a FACS Calibur flow cytometer (Becton Dickinson), and the flow cytometry data were analyzed using FlowJo. For intracellular flow cytometry analyses, single-cell suspensions were stained with antibodies and analyzed using a BD FACSCalibur.

Data set [3] concerns mouse adult lung fibroblasts (MAFs). Briefly: Induction of XEN-like cells from adult fibroblasts. The format is cell-based. The following applies: vitamin C (50 μg/ml) and CH55 (1 μM) added together to stage 1 medium; 12 days' induction. As to the method:
Stage 1 culture medium preparation: KnockOut DMEM (Invitrogen) supplemented with 10% KSR (Invitrogen), 10% FBS (Pan-Biotech), 1% GlutaMAX™-I (Invitrogen), 1% NEAA (Invitrogen), 0.055 mM β-ME (Sigma), 1% penicillin-streptomycin (Invitrogen), 100 ng/ml bFGF (Origene) containing the small-molecule cocktail: 0.5 mM VPA, 2-4 μM TD114-2 or 20 μM CHIR, 10 μM 616452, 10 μM Tranylcypromine, 10-50 μM Forskolin, 0.05 μM AM580 and 5 μM EPZ004777 (VT6TFAE or VC6TFAE).

The subject of a further data set is CeXEN cells. Put plainly: Toxicity to CeXEN cells in stage 2 neural induction medium. It is filed as cell-based, mouse. The settings on record: 50 μM. As to the method:
CeXEN (chemically-derived eXEN) cells with TauEGFP reporter were derived from E3.5 blastocysts using stage 1 culture medium as previously reported (Zhao et al., Cell, 163:1678-1691 (2015)). Medium was changed every day and the cells were passaged at 1:20 to 1:30 every 3 days.
1. For chemical induction, CeXEN cells were plated at 50,000-100,000 cells per well of a 6-well plate (with gelatin-coated) in stage 1 medium (day 0).
2. On day2 or day3 until 70-80% confluence, cells were switched into stage 2 neural induction culture medium for 12-20 days and TauEGFP-positive cells were generated.
A relatively low initial cell density is beneficial for lineage induction from passaged CeXEN cells since the high proliferation rate of CeXEN cells. Considering that FSK used at high concentration 50 μM was toxic to CeXEN cells at stage 2, a concentration of 10-20 μM in neural induction culture medium on CeXEN cells is preferred.

In a further data set the test system is passaged XEN-like cells. Briefly: Toxicity to passaged XEN-like cells in stage 2 neural induction medium. The settings on record: 50 μM. It is filed as cell-based, mouse. As for the experimental part: For neural induction from passaged XEN-like cells, cells were plated at 50,000-100,000 cells per well of a 6-well plate (with gelatin-coated) in stage 1 medium (day 0). Until passaged cells become 70-80% confluence on day2 or day3, switch the XEN-like cells into stage 2 neural induction medium. After 12-20 days, TauEGFP-positive colonies emerged. Considering that FSK used at high concentration 50 μM was toxic to passaged XEN-like cells at stage 2, a concentration of 10-20 μM in neural induction culture medium on passaged XEN-like cells is preferred.

The subject of data set [4] is XEN-like cells. Put plainly: qRT-PCR of neural, fibroblast and XEN genes in the absence of single Stage 2 medium components. The following applies: genes examined in the absence of the factor; FIG. 1F. The format is cell-based, mouse.

Regarding `N#Cc1cc2[nH]c(=O)c(=O)[nH]c2cc1[N+](=O)[O-]` [CNQX, 6-cyano-1007-nitroquinoxaline-2,3-dione], the “spontaneous excitatory postsynaptic currents (EPSCs)” value in data set [1] is “blocked”.
As for `O=C1NC(=O)C2=C1c1cn(c3ccccc13)CCOCCOCCOCCOCCn1cc2c2ccccc21` [TD114-2, 10,11,13,14,16,17,19,20,22,23-decahydro-9,4:24, 29-dimetheno-1H-dibenzo[n,t] pyrrolo[3,4-q] [1,4,7,10,13,22]-tetraoxadiazacyclotetracosine-31,33(32H) dione], the “yield of the primary colonies, enhancement” value in the data set on fibroblasts stood at 3 fold. Also, the “long term expansion of XEN-like colonies, passages tested” value with XEN-like colonies is listed as “at least 20 passages”.
For the molecule `N[C@@H](CCC(=O)O)C(=O)O` [Glutamate], the “membrane currents on focal application” value in data set [1] (100 μM, focal application) was “induction of inward membrane currents”.
For the molecule `NC1=N[C@H](O)[C@H]2[C@H]3O[C@]4(O)O[C@@H]([C@@H](O)[C@@]2(N1)[C@@H]4O)[C@]3(O)CO` [TTX, tetrodotoxin], the “sodium currents (inward currents, voltage-clamp)” value in data set [1] is “blocked”.
Take `c1ccc2c(-c3cnn4cc(-c5ccc(N6CCNCC6)cc5)cnc34)ccnc2c1` [LDN193189, 4-(6-(4-(piperazin-1-yl)phenyl)pyrazolo[1,5-a]pyrimidin-3-yl)quinolone]: the “effect on neuron induction efficiency in stage 2 medium” value in the data set on XEN-like cells [2] is on record as “favorable to enhance the induction efficiency”.
Consider `O=C1O[C@H]([C@@H](O)CO)C(O)=C1O` [vitamin C], for which the “efficiency of generating XEN-like cells from adult fibroblasts” value in data set [3] is given as “significantly improved”.
Consider `C=C[C@@]1(C)CC(=O)[C@]2(O)[C@@]3(C)[C@@H](O)CCC(C)(C)[C@@H]3[C@H](O)[C@H](OC(C)=O)[C@@]2(C)O1` [Forskolin], for which the “toxicity to CeXEN cells at stage 2” value in the data set with CeXEN cells is reported as “toxic”. Moreover, the “toxicity to passaged XEN-like cells at stage 2” value in the data set on passaged XEN-like cells is given as “toxic”.
As for `NC(CCCP(=O)(O)O)C(=O)O` (stereo not shown) [AP5, 2-amino-5-phosphonovaleric acid], the “spontaneous excitatory postsynaptic currents (EPSCs)” value in data set [1] is “blocked”.
On to `NC(=O)c1ccc(-c2nc(-c3ccc4c(c3)OCO4)c(-c3ccccn3)[nH]2)cc1` [SB431542, 4-[4-(1,3-benzodioxol-5-yl)-5-(2-pyridinyl)-1H-imidazol-2-yl]benzamide], for which the “effect on neuron induction efficiency in stage 2 medium” value in the data set with XEN-like cells [2] is recorded as “favorable to enhance the induction efficiency”.
Take `CC(C)(C)c1cc(C(=O)/C=C/c2ccc(C(=O)O)cc2)cc(C(C)(C)C)c1` [CH55]: the “efficiency of generating XEN-like cells from adult fibroblasts” value in data set [3] was “significantly improved”.

B1: GDNF: growth factor in Stage 2 neural induction medium, 20 ng/ml (protein, UniProt P39905 78-211, looked up)
Glial cell line-derived …: SPDKQMAVLPRRERNRQAAAANPENSRGKGRRGQRGKNRGCVLTAIHLNVTDLGLGYETKEELIFRYCSGSCDAAETTYDKILKNLSRNRRLVSDKVGQACCRPIAFDDDLSFLDDNLVYHILRKHSAKRCGCI
Consider B1, for which the “role of the stage 2 medium component for neural-, fibroblast- and XEN-specific gene expression” value in the data set with XEN-like cells [4] is “important for inducing neuronal mater and functional genes”.
